Data from patent US9586951B2 (FUJIFILM Corporation, priority 2013, dated 2017).

Assays:
[1] = test system: human non-small cell lung cancer cell line NCI-H460; assay: Cell proliferation inhibition test by sensitivity-enhancing to ionizing radiation (Cell Titer Glo); type: cell-based; conditions: Homo sapiens, NCI-H460, 120 h, concentration in which SER became 2; NCI-H460 cells, ionizing radiation 2 Gy, cultured 120 hour
Summary of the method: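 Cells seeded at 2×10^3 cells/mL in RPMI-1640 with 10% FBS; after 24 h, compound added (0.1% DMSO), and 30 min later half the plates irradiated at 2 Gy. After 120 hour at 37° C, viability by Cell Titer Glo luminescence; SER2 is the concentration giving SER of 2 by sigmoidal fit.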

[2] = target: T1, ATM (Homo sapiens, UniProt Q13315); assay: ATM inhibition test (phosphorylation of Chk2 generated by ionizing radiation, AlphaScreen SureFire); type: cell-based; conditions: phosphorylated Chk2 in NCI-H460 cells, ionizing radiation 8Gy, 1 hour after test compound treatment; read-out: ATM inhibitory activity
T1 construct: detecting phosphorylation of Chk2 in a human non-small cell lung cancer cell line NCI-H460 (ATCC company); host or cells: NCI-H460 human non-small cell lung cancer cells
Summary of the method: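 In NCI-H460 cells, radiation-triggered Chk2 phosphorylation (8Gy, 1 h) is detected by AlphaScreen SureFire following 1 h compound exposure.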

T1 sequence (Q13315 whole entry): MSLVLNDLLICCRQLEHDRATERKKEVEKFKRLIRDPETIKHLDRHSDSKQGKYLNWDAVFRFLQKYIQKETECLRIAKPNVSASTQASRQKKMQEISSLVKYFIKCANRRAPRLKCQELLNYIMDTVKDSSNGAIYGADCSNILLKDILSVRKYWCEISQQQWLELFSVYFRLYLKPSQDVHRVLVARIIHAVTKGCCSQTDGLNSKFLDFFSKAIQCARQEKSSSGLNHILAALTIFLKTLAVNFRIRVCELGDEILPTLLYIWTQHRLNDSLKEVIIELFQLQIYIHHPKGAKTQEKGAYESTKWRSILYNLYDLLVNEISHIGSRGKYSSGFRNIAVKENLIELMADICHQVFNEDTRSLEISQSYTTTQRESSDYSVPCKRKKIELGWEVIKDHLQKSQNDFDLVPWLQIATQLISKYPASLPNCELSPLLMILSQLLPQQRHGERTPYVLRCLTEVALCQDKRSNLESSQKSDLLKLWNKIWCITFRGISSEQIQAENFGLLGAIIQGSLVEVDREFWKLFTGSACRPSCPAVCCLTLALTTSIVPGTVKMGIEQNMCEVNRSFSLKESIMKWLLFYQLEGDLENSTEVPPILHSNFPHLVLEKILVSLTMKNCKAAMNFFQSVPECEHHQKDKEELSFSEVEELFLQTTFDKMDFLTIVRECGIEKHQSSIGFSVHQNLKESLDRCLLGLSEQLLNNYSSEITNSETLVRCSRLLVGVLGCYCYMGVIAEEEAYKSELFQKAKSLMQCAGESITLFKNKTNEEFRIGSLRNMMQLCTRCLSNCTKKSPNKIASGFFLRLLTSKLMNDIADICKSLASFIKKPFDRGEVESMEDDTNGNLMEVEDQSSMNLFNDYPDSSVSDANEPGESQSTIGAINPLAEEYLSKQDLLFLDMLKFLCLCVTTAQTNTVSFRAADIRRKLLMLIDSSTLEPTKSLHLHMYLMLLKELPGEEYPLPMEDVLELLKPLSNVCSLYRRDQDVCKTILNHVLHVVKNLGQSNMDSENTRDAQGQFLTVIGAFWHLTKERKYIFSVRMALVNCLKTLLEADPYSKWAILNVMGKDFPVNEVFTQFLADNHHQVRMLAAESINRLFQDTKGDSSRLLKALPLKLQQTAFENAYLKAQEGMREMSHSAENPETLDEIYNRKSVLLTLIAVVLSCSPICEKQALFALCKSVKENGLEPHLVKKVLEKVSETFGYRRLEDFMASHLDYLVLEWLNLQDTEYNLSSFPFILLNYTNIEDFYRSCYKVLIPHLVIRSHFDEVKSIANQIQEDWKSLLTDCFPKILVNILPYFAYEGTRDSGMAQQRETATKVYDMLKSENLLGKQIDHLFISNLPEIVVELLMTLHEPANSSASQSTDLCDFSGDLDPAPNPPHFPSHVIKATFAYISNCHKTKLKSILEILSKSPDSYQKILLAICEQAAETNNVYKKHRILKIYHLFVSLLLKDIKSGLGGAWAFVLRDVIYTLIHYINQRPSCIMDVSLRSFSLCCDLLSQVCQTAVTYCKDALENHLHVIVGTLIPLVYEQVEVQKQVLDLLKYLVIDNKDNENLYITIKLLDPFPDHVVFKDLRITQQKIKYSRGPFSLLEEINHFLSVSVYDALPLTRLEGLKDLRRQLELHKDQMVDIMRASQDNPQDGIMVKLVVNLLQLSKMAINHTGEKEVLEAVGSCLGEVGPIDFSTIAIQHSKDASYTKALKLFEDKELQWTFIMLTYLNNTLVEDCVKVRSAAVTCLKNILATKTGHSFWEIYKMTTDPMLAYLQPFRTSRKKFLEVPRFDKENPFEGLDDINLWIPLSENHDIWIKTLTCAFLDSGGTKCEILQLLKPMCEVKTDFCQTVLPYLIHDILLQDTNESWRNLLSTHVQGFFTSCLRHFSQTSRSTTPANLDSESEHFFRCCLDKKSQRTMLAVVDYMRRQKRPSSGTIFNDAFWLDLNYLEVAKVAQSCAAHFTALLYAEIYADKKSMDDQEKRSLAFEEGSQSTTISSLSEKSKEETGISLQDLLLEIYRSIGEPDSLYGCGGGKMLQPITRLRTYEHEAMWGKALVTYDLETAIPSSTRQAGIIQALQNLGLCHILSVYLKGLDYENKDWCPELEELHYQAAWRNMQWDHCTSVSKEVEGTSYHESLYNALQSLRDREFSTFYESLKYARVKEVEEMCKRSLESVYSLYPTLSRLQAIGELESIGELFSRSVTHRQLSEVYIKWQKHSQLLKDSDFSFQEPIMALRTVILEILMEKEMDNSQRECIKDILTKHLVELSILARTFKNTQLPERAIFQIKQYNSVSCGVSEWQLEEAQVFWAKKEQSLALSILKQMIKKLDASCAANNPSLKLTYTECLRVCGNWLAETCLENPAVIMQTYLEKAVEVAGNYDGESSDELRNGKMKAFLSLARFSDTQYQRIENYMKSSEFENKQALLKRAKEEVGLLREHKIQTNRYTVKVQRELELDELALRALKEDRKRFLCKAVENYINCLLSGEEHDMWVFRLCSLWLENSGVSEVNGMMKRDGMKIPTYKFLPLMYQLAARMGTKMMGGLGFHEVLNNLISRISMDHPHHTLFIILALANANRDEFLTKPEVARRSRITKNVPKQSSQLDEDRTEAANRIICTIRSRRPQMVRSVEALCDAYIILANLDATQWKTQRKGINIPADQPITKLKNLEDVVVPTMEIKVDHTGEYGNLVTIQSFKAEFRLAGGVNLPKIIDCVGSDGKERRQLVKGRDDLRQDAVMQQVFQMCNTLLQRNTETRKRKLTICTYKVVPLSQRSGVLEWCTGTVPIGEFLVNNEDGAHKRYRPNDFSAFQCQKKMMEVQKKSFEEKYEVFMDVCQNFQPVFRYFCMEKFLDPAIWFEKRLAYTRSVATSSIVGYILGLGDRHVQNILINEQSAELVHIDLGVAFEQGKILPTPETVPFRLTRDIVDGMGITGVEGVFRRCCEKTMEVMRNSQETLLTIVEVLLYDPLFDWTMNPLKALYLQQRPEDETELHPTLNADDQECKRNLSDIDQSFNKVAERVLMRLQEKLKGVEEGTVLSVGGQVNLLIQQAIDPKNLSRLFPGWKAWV

Structure (SMILES) | IC50 [2] [µM] | SER2 (concentration at which the radiation sensitivity-enhancement ratio reaches 2) [1] [nM]
COCc1cc(CNc2ccc3c(c2)Cc2cccc(-c4cc(N5CCOCC5)cc(=O)[nH]4)c2O3)ccn1 [Example 2-21-6, 6-(7-(((2-(Methoxymethyl)pyridin-4-yl)methyl)amino)-9H-xanthen-4-yl)-4-morpholino pyridin-2(1H)-one] | < 0.1 | 500 to 2000
CN(C)c1cncc(CNc2ccc3c(c2)Cc2cccc(-c4cc(N5CCOCC5)cc(=O)[nH]4)c2O3)c1 [Example 2-21-7, 6-(7-(((5-(Dimethylamino)pyridin-3-yl)methyl)amino)-9H-xanthen-4-yl)-4-morpholino pyridin-2(1H)-one] | < 0.1 | 500 to 2000
CCN(C)c1cncc(CNc2ccc3c(c2)Cc2cccc(-c4cc(N5CCOCC5)cc(=O)[nH]4)c2O3)c1 [Example 2-21-9, 6-(7-(((5-(Ethyl(methyl)amino)pyridin-3-yl)methyl)amino)-9H-xanthen-4-yl)-4-morpholino pyridin-2(1H)-one] | < 0.1 | 500 to 2000
COc1ncccc1CN1CCC(Nc2ccc3c(c2)Cc2cccc(-c4cc(N5CCOCC5)cc(=O)[nH]4)c2O3)CC1 [Example 2-28-5, 6-(7-((1-((2-Methoxypyridin-3-yl)methyl)piperidin-4-yl)amino)-9H-xanthen-4-yl)-4-morpholino pyridin-2(1H)-one] | < 0.1 | 500 to 2000
CCCN1CCC(Nc2ccc3c(c2)Cc2cccc(-c4cc(N5CCOCC5)cc(=O)[nH]4)c2O3)CC1 [Example 2-28-32, 4-Morpholino-6-(7-((1-propylpiperidin-4-yl)amino)-9H-xanthen-4-yl) pyridin-2(1H)-one] | < 0.1 | 500 to 2000
O=c1cc(N2CCOCC2)cc(-c2c(F)ccc3c2Oc2ccc(NCc4cccc(Cl)n4)cc2C3)[nH]1 [Example 2-46-1, 6-(7-(((6-Chloropyridin-2-yl)methyl)amino)-3-fluoro-9H-xanthen-4-yl)-4-morpholinopyridin-2(1H)-one] | < 0.1 | < 100
O=c1cc(N2CCOCC2)cc(-c2c(F)ccc3c2Oc2ccc(NCc4cncc(Cl)c4)cc2C3)[nH]1 [Example 2-46-2, 6-(7-(((5-Chloropyridin-3-yl)methyl)amino)-3-fluoro-9H-xanthen-4-yl)-4-morpholinopyridin-2(1H)-one] | < 0.1 | 100 to 500
O=c1cc(N2CCOCC2)cc(-c2c(F)ccc3c2Oc2ccc(NCc4cc(C5CC5)ccn4)cc2C3)[nH]1 [Example 2-46-3, 6-(7-(((4-Cyclopropylpyridin-2-yl)methyl)amino)-3-fluoro-9H-xanthen-4-yl)-4-morpholinopyridin-2(1H)-one] | < 0.1 | < 100
Cc1ccnc(CNc2ccc3c(c2)Cc2ccc(F)c(-c4cc(N5CCOCC5)cc(=O)[nH]4)c2O3)c1 [Example 2-46-5, 6-(3-Fluoro-7-(((4-methylpyridin-2-yl)methyl)amino)-9H-xanthen-4-yl)-4-morpholinopyridin-2(1H)-one] | < 0.1 | 100 to 500
O=c1cc(N2CCOCC2)cc(-c2cccc3c2Oc2ccc(NCc4cc(Cl)ccn4)cc2S3)[nH]1 [Example 4-4-2, 6-(8-(((4-Chloropyridin-2-yl)methyl)amino)phenoxathiin-4-yl)-4-morpholino pyridin-2(1H)-one] | < 0.1 | 100 to 500
COc1ncc(CNc2ccc3c(c2)Sc2cccc(-c4cc(N5CCOCC5)cc(=O)[nH]4)c2O3)cn1 [Example 4-4-4, 6-(8-(((2-Methoxypyrimidin-5-yl)methyl)amino)phenoxathiin-4-yl)-4-morpholino pyridin-2 (1H)-one] | < 0.1 | 500 to 2000
CNc1ccc(CNc2ccc3c(c2)Sc2cccc(-c4cc(N5CCOCC5)cc(=O)[nH]4)c2O3)cn1 [Example 4-4-6, 6-(8-(((6-(Methylamino)pyridin-3-yl)methyl)amino)phenoxathiin-4-yl)-4-morpholino pyridin-2(1H)-one] | < 0.1 | 500 to 2000
O=c1cc(N2CCOCC2)cc(-c2cccc3c2Oc2ccc(NCc4cncc(-n5cccn5)c4)cc2S3)[nH]1 [Example 4-4-9, 6-(8-(((5-(1H-Pyrazol-1-yl)pyridin-3-yl)methyl)amino)phenoxathiin-4-yl)-4-morpholino pyridin-2(1H)-one] | < 0.1 | 100 to 500
COc1cc(CNc2ccc3c(c2)Sc2cccc(-c4cc(N5CCOCC5)cc(=O)[nH]4)c2O3)cnc1OC [Example 4-4-12, 6-(8-(((5,6-Dimethoxypyridin-3-yl)methyl)amino)phenoxathiin-4-yl)-4-morpholino pyridin-2(1H)-one] | < 0.1 | 100 to 500
CNc1ncc(CNc2ccc3c(c2)Sc2cccc(-c4cc(N5CCOCC5)cc(=O)[nH]4)c2O3)cn1 [Example 4-4-13, 6-(8-(((2-(Methylamino)pyrimidin-5-yl)methyl)amino)phenoxathiin-4-yl)-4-morpholino pyridin-2(1H)-one] | < 0.1 | 100 to 500
COc1ncc(CNc2ccc3c(c2)Sc2cccc(-c4cc(N5CCOCC5)cc(=O)[nH]4)c2O3)cc1F [Example 4-4-14, 6-(8-(((5-Fluoro-6-methoxypyridin-3-yl)methyl)amino)phenoxathiin-4-yl)-4-morpholino pyridin-2(1H)-one] | < 0.1 | 100 to 500
O=c1cc(N2CCOCC2)cc(-c2cccc3c2Oc2ccc(NCc4ccnc(Br)c4)cc2S3)[nH]1 [Example 4-4-16, 6-(8-(((2-Bromopyridin-4-yl)methyl)amino)phenoxathiin-4-yl)-4-morpholino pyridin-2(1H)-one] | < 0.1 | 100 to 500

Continued, in another order:

IC50 [2] [µM] | Structure (SMILES) | SER2 (concentration at which the radiation sensitivity-enhancement ratio reaches 2) [1] [nM]
< 0.1 | COc1cncc(CN2CCC(Nc3ccc4c(c3)Cc3cccc(-c5cc(N6CCOCC6)cc(=O)[nH]5)c3O4)CC2)n1 [Example 2-28-23, 6-(7-((1-((6-Methoxypyrazin-2-yl)methyl)piperidin-4-yl)amino)-9H-xanthen-4-yl)-4-morpholino pyridin-2(1H)-one] | 500 to 2000
< 0.1 | Cc1cccc(CNc2ccc3c(c2)Cc2ccnc(-c4cc(N5CCOCC5)cc(=O)[nH]4)c2O3)n1 [Example 2-41-2, 6-(7-(((6-Methylpyridin-2-yl)methyl)amino)-5H-chromeno[2,3-c]pyridin-1-yl)-4-morpholino pyridin-2 (1H)-one] | 100 to 500
< 0.1 | O=c1cc(N2CCOCC2)cc(-c2nccc3c2Oc2ccc(NCc4cc(Cl)ccn4)cc2C3)[nH]1 [Example 2-41-3, 6-(7-(((4-Chloropyridin-2-yl)methyl)amino)-5H-chromeno [2,3-c]pyridin-1-yl)-4-morpholino pyridin-2(1H)-one] | 100 to 500
< 0.1 | COc1ccnc(CNc2ccc3c(c2)Cc2ccnc(-c4cc(N5CCOCC5)cc(=O)[nH]4)c2O3)c1 [Example 2-41-4, 6-(7-(((4-Methoxypyridin-2-yl)methyl)amino)-5H-chromeno[2,3-c]pyridin-1-yl)-4-morpholino pyridin-2 (1H)-one] | 100 to 500
< 0.1 | Cc1cccc(CNc2ccc3c(c2)Cc2ccc(F)c(-c4cc(N5CCOCC5)cc(=O)[nH]4)c2O3)n1 [Example 2-46-4, 6-(3-Fluoro-7-(((6-methylpyridin-2-yl)methyl)amino)-9H-xanthen-4-yl)-4-morpholinopyridin-2(1H)-one] | 100 to 500
< 0.1 | COc1ccc(CNc2ccc3c(c2)Cc2cccc(-c4cc(N5CCOCC5)cc(=O)[nH]4)c2S3)cn1 [Example 3-8-10, 6-(7-(((6-Methoxypyridin-3-yl)methyl)amino)-9H-thioxanthen-4-yl)-4-morpholino pyridin-2(1H)-one] | 100 to 500
< 0.1 | O=c1cc(N2CCOCC2)cc(-c2cccc3c2Oc2ccc(NCc4cncc(N5CCCC5)c4)cc2S3)[nH]1 [Example 4-4-7, 4-Mmorpholino-6-(8-(((5-(pyrrolidin-1-yl)pyridin-3-yl)methyl)amino)phenoxathiin-4-yl)pyridin-2(1H)-one] | 100 to 500
< 0.1 | O=c1cc(N2CCOCC2)cc(-c2cccc3c2Oc2ccc(NCc4cncc(-n5cccc5)c4)cc2S3)[nH]1 [Example 4-4-8, 6-(8-(((5-(1H-Pyrrol-1-yl)pyridin-3-yl)methyl)amino)phenoxathiin-4-yl)-4-morpholino pyridin-2(1H)-one] | 100 to 500
< 0.1 | O=c1cc(N2CCOCC2)cc(-c2cccc3c2Oc2ccc(NCc4cnc5ccccc5c4)cc2S3)[nH]1 [Example 4-4-15, 4-Morpholino-6-(8-((quinolin-3-ylmethyl)amino)phenoxathiin-4-yl) pyridin-2(1H)-one] | 100 to 500
